We go through four compounds from patent US20240217911A1, “A hydroxycarboxylic acid for the treatment of cancer” (UNIVERSITÄT ZÜRICH, priority 2021, published 2024).

Entries after “also recorded” stand apart in the source; their conditions may differ.

What all share (assay type): in vivo, mouse
In one experiment the test system is MC-38 tumours. The experiment is described as follows: MC-38 subcutaneous CRC tumour model. The note with it: for anti-tumour effect, tumour volume and weight (FIG. 15): 5-FU or both; for anti-tumour effect, tumour volume and weight (FIG. 11-13): metabolite 200 uM, 200 uL/mouse i.p. day 6, 9, 12, vs vehicle; for tumour reduction, tumor volume and weight (FIG. 17A-B): GPR84 agonist/antagonist 200 uM. As to the method:
WT C57BL/6JRJ were purchased from Janvier Labs (France). All mice were kept in specific-pathogen-free conditions. Males and female littermates between 8-12 weeks were used for all the experiments. All animal experiments were performed according to Swiss animal welfare legislation and approved by the local veterinary office (Veterinaramt des Kantons Zurich). […]
For CRC injection models, MC38 cells were suspended in DMEM high glucose cell culture medium mixed 1:1 with Matrigel and 300,000 cells injected subcutaneously into the flanks, and mice euthanized […] after injection. Tumour development was measured every 3 days using a digital calliper. Tumour volume was calculated using the ellipsoid formula: 4/3*3.14*Length/2*(Width/2)^2, where the shorter dimension was used as width and depth. Mice were terminated 14 days after subcutaneous injection or when tumour volume reached 1 cm^3 or the length reached 2 cm. For the other solid tumours subcutaneous injection models, B16 melanoma cells were suspended in DMEM high glucose cell culture medium mixed 1:1 with Matrigel and 200,000 cells injected into both flanks of the animal. Lewis lung carcinoma cells LLC1.1 were suspended in DMEM high glucose cell culture medium mixed 1:1 with Matrigel and 200,000 cells injected in the right flank of a mouse. PD-1 blockade was performed in the subcutaneous tumour model by injecting of 200 μg/mouse anti-PD1(CD279) antibody (BioXCell; clone 29F.1A12) or IgG isotype control (BioXCell; clone 2a3) i.p. on days 6, 9 and 12 after subcutaneous MC-38 cells injection. 5-Fluorouracil (5-FU) was administered by i.p injections of 20 mg/kg 5-FU dissolved in DMSO at days 6, 9, and 12.
(§1) Each metabolite was dissolved in dimethyl sulfoxide (DMSO) to reach the stock concentration of 100 mM. For mice injections, stock solution of each metabolite was diluted 1:500 in saline to reach final concentration of 200 uM and 200 uL/mouse were injected intraperitoneally on day 6, day 9 and day 12-post tumour cell injection. Metabolites used: 3-Hydroxydodecanedioic acid (R and S forms) (collaborators UZH), Dodecanedioic acid (Sigma), Decanoic acid (Sigma), Unidecanoic acid (Sigma), Dodecanoic acid (Sigma), Tridecanoic acid (Sigma), Tetradecanoic acid (Angene), 3-Hydroxydecanoic acid (Sigma), 3-Hydroxydodecanoic acid (Sigma), 3-Hydroxytetradecanoic acid (Angene). GPR84 receptor blockade was performed in the subcutaneous tumour model by injecting 200 uL/mouse of 200 uM of GPR84 antagonist GLPG1205 (MCE MedChemExpress).

The test system of a further experiment is LLC1.1 lung cancer. The experiment is described as follows: LLC1.1 Lewis lung carcinoma subcutaneous tumour model. The note with it: LLC.1 lung cancer; vs vehicle. As to the method:
(§2) WT C57BL/6JRJ were purchased from Janvier Labs (France). All mice were kept in specific-pathogen-free conditions. Males and female littermates between 8-12 weeks were used for all the experiments. All animal experiments were performed according to Swiss animal welfare legislation and approved by the local veterinary office (Veterinaramt des Kantons Zurich).
(§3) Clostridiales strains Eubacterium hallii: DSM3353T, Faecalibacterium prausnitzii: DSM17677, Roseburia intestinalis: DSM14610T, Anaerostipes caccae: DSM14662T were obtained from PharmaBiome AG, Zurich (sometimes referred to as butyrate producers, 4 clostridia consortia CC4, or BP). All strains were cultivated at 37° C. in yeast extract, casitone and fatty acid (YCFA) medium (Lopez et al. 2012. Appl Environ Microbiol 78, 420-428). Strains were maintained under anoxic CO2 atmosphere using Hungate techniques. […] Viability of cells was confirmed using propidium iodide staining measured by flow cytometry. […]
(§4) For CRC injection models, MC38 cells were suspended in DMEM high glucose cell culture medium mixed 1:1 with Matrigel and 300,000 cells injected subcutaneously into the flanks, and mice euthanized […] after injection. Tumour development was measured every 3 days using a digital calliper. Tumour volume was calculated using the ellipsoid formula: 4/3*3.14*Length/2*(Width/2)^2, where the shorter dimension was used as width and depth. […]

The next experiment concerns CD8+ T cells. The experiment is described as follows: flow analysis of CD8+ T cells in MC-38 tumours. Conditions: flow analysis in MC-38 tumor. The procedure:
FIG. 17. A, MC-38 tumor volume curve (mm^3) and B, tumorweight (g) in WT mice treated with GPR84 agonist, 3-OH dodecanoic acid (3-OH Dodeca), GPR84 antagonist, GPR84 antagonist & 3-OH Dodeca or saline (Ctrl). C, Bar charts of flow analysis in tumor corresponding to the groups described in A and B. Two-way ANOVA with Dunnett's correction for multiple comparisons (A & C). Means±SEM analyzed by Kruskal-Wallis and Dunn's correction for multiple comparison (B). Experiments were performed at least twice, n=5.
as §1

The test system of another experiment is B16 melanoma. In words: B16 melanoma subcutaneous tumour model. Conditions: vs vehicle. As to the method:
as §2, §3, §4

In the case of `CCCCCCCCCC(O)CC(=O)O` (stereo not shown) [3-hydroxydodecanoic acid], the “anti-tumour effect, tumour volume and weight (FIG. 15)” value in the experiment on MC-38 tumours (3-hydroxydodecanoic acid) is “comparable anti-tumour effect”. The “anti-tumour effect, tumour volume and weight (FIG. 14)” value in the experiment on MC-38 tumours (3-hydroxydodecanoic acid, anti-PD-1 or both) is “comparable anti-tumour effect”. Besides, the “anti-tumour effect, tumour volume and weight (FIG. 11-13)” value with MC-38 tumours was “most favourable anti-tumour effect; also recorded: anti-tumour effect of the bacterial metabolites was specifically induced by 3-hydroxydodecanoic acid”; with MC-38 tumours (listed as CH3(CH2)8 CHOH—(CH2)—CO2H) it was “inhibited tumour growth”. Moreover, the “anti-tumour effect, tumour volume and weight (FIG. 16 B)” value with LLC1.1 lung cancer was “clear anti-tumour effect”. Moreover, the “expression of granzyme B and IFNγ by CD8+ T cells (FIG. 17C)” value (shortened to “expression of granzyme B and IFNγ”) in the experiment with CD8+ T cells is “similarly increased expression of granzyme B and IFNγ by CD8+ T cells”. For the same compound, the “anti-tumour effect, tumour volume and weight (FIG. 16 A)” value in the experiment on B16 melanoma was “clear anti-tumour effect”.
For `O=c1nc(OC[C@@H]2COCCO2)cc2n1CCc1cc(C#CC3CC3)ccc1-2` [GPR84 antagonist, reference compound], the “tumour reduction, tumor volume and weight (FIG. 17A-B)” value with MC-38 tumours (200 uL/mouse i.p. day 6, 9, 12) is listed as “completely abrogated the anti-tumour effect of 3-hydroxydodecanoic acid”. In the experiment with CD8+ T cells, the “expression of granzyme B and IFNγ” value is reported as “entirely lost this anti-tumour immunological change”.
Regarding `O=c1[nH]cc(F)c(=O)[nH]1` [5-FU, 5-fluorouracil, reference compound], the “anti-tumour effect, tumour volume and weight (FIG. 15)” value in the experiment with MC-38 tumours (3-hydroxydodecanoic acid) was “comparable anti-tumour effect”.
With `CCCCCCSc1nc(O)cc(=O)[nH]1` [ZQ-16, 2-(hexylthio)pyramidine-4,6-diol, reference compound], the “tumour reduction, tumor volume and weight (FIG. 17A-B)” value in the experiment with MC-38 tumours (200 uL/mouse i.p. day 6, 9, 12) was “limit tumour growth in a model of cancer in vivo”; in the experiment with MC-38 tumours (200 uL/mouse i.p. day 6, 9, 12, listed as 2-(hexylthio)pyramidine-4,6-diol), “inhibited tumour growth”. Further, in the experiment with CD8+ T cells, the “expression of granzyme B and IFNγ” value was “similarly increased expression of granzyme B and IFNγ by CD8+ T cells”.
